Test results as given in patent US9801845B2 (priority 2015, dated 2017).
Positions of bridges follow the written chain, without caps; N, C: chain ends. Non-standard residues stand in square brackets, D forms with d. Residues, ends and D or L forms follow the SMILES beside them. *: point of attachment. Ileψ(thiazoline)Cys = CC[C@H](C)[C@H](N)C1=N[C@H](C(=O)*)CS1; dOrn = NCCC[C@@H](N)C(=O)O

Assays:
[1] = tested on: C. perfringens; format: cell-based, Clostridium perfringens; conditions: TSA-thioglycolate broth, 250 μL of 2% w/v, overnight, anaerobic
[2] = tested on: C. perfringens; format: cell-based, Clostridium perfringens; conditions: FIG. 2

CC[C@H](C)[C@H](N)C1=N[C@H](C(=O)N[C@@H](CC(C)C)C(=O)N[C@H](CCC(=O)O)C(=O)N[C@H](C(=O)N[C@H]2CCCCNC(=O)[C@H](CC(N)=O)NC(=O)[C@@H](CC(=O)O)NC(=O)[C@H](Cc3cnc[nH]3)NC(=O)[C@@H](Cc3ccccc3)NC(=O)[C@H]([C@@H](C)CC)NC(=O)[C@@H](CCCN)NC2=O)[C@@H](C)CC)CS1 [Bacitracin] ({Ileψ(thiazoline)Cys}-L[dE]IK[dOrn]I[dF]H[dD]N; lactam 4-C)
inhibition of C. perfringens growth (counts) [1]: complete inhibition
inhibition of the growth of C. perfringens, crop assay ([2]; crop supernatant pH 5.34, 250 μL of 2% w/v, 24 h): complete inhibition
reduction of C. perfringens, ileal assay (in words) ([2]; ileal supernatant pH 7.01, 24 h): almost complete reduction
effectiveness against C. perfringens, proventricular assay ([2]; proventricular supernatant pH 2.54, 250 μL of 2% w/v, 24 h): not effective
